{"source": "patent US5120726A", "about": "“Rapamycin hydrazones” (American Home Products Corporation, priority 1991, dated 1992)", "key": {"[1]": {"test_system": "pinch skin graft from male DBA/2 donors transplanted to male BALB/c recipients", "assay": "survival time of pinch skin graft", "type": "in vivo", "settings": "intraperitoneally; mean ± S.D.", "procedure": "(§1) Immunosuppressive activity was evaluated in an in vitro standard pharmacological test procedure to measure lymphocyte proliferation (LAF) and in two in vivo standard pharmacological test procedures. The first in vivo procedure was a popliteal lymph node (PLN) test procedure which measured the effect of compounds of this invention on a mixed lymphocyte reaction and the second in vivo procedure evaluated the survival time of a pinch skin graft.\nThe second in vivo test procedure is designed to determine the survival time of pinch skin graft from male DBA/2 donors transplanted to male BALB/c recipients. The method is adapted from Billingham R. E. and Medawar P. B., J. Exp. Biol. 28:385-402, (1951). Briefly, a pinch skin graft from the donor is grafted on the dorsum of the recipient as a homograft, and an autograft is used as control in the same region. […] Untreated recipients serve as rejection control. The graft is monitored daily and observations are recorded until the graft becomes dry and forms a blackened scab. This is considered as the rejection day. The mean graft survival time (number of days±S.D.) of the drug treatment group is compared with the control group."}, "[2]": {"test_system": "cells from the thymus of normal BALB/c mice (lymphocyte proliferation)", "assay": "comitogen-induced thymocyte proliferation procedure (LAF), lymphocyte proliferation", "type": "cell-based", "settings": "for IC50: Mus musculus, Lymphocyte, read-out: LAF IC50; for LAF (ratio): ratio vs rapamycin", "procedure": "as §1\nBriefly, cells from the thymus of normal BALB/c mice are cultured for 72 hours with PHA and IL-1 and pulsed with tritiated thymidine during the last six hours. […] Cells are harvested and incorporated radioactivity is determined. Inhibition of lymphoproliferation is assessed as percent change in counts per minute from non-drug treated controls. The results are expressed by the following ratio, or as the percent inhibition of lymphoproliferation at 1 μM. [formula]"}, "[3]": {"test_system": "mixed lymphocyte reaction (popliteal lymph node)", "assay": "popliteal lymph node (PLN) test procedure, effect on a mixed lymphocyte reaction", "type": "in vivo, C3H mice (BALB/c donors)", "settings": "ratio vs rapamycin; p.o. daily Day 0 to Day 4", "procedure": "as §1\nA mixed lymphocyte reaction (MLR) occurs when lymphoid cells from genetically distinct animals are combined in tissue culture. Each stimulates the other to undergo blast transformation which results in increased DNA synthesis that can be quantified by the incorporation of tritiated thymidine. Since stimulating a MLR is a function of disparity at Major Histocompatibility antigens, an in vivo popliteal lymph node (PLN) test procedure closely correlates to host vs. graft disease. Briefly, irradiated spleen cells from BALB/c donors are injected into the right hind foot pad of recipient C3H mice. The drug is given daily, p.o. from Day 0 to Day 4. On Day 3 and Day 4, tritiated thymidine is given i.p., b.i.d. On Day 5, the hind popliteal lymph nodes are removed and dissolved, and radioactivity counted. […] Percent suppression is calculated using the non-drug treated animals as allogenic control. […]"}, "Candida albicans": {"test_system": "Candida albicans", "settings": "both in vitro and in vivo; cited from earlier work"}, "adjuvant arthritis": {"test_system": "adjuvant arthritis", "settings": "in vivo; cited from earlier work"}, "T-cell activation": {"test_system": "T-cell activation", "settings": "cited from earlier work"}, "[4]": {"test_system": "organ grafts in histoincompatible rodents", "settings": "cited from earlier work"}, "[5]": {"settings": "thymocytes cultured 72 hours with PHA and IL-1, tritiated thymidine last six hours"}}, "note": "Like-named read-outs stand apart in the source and are kept apart here.", "data": [{"smiles": "CO[C@H]1C[C@@H]2CC[C@@H](C)[C@@](O)(O2)C(=O)C(=O)N2CCCC[C@H]2C(=O)O[C@H]([C@H](C)C[C@@H]2CC[C@@H](O)[C@H](OC)C2)CC(=NNC(C)=O)[C@H](C)/C=C(\\C)[C@@H](O)[C@@H](OC)C(=O)[C@H](C)C[C@H](C)/C=C/C=C/C=C/1C", "note": "[Example 1, Rapamycin 27-(methylcarbonyl hydrazone)]", "values": [{"measurement": "Skin Graft survival time (days + SD)", "setting": "[1]", "result": "10.50 ± 0.6", "unit": "days"}, {"measurement": "IC50", "setting": "[2]; [5]", "result": 17.3, "unit": "nM"}, {"measurement": "LAF (ratio)", "setting": "[2]; [5]", "result": 0.50}]}, {"smiles": "CO[C@H]1C[C@@H]2CC[C@@H](C)[C@@](O)(O2)C(=O)C(=O)N2CCCC[C@H]2C(=O)O[C@H]([C@H](C)C[C@@H]2CC[C@@H](O)[C@H](OC)C2)CC(=NNC(=O)Nc2ccccc2)[C@H](C)/C=C(\\C)[C@@H](O)[C@@H](OC)C(=O)[C@H](C)C[C@H](C)/C=C/C=C/C=C/1C", "note": "[Example 2, Rapamycin 27-(4-Phenylsemicarbazone)]", "values": [{"measurement": "Skin Graft survival time (days + SD)", "setting": "[1]", "result": "7.83 ± 1.3", "unit": "days"}, {"measurement": "IC50", "setting": "[2]; [5]", "result": 19.2, "unit": "nM"}, {"measurement": "LAF (ratio)", "setting": "[2]; [5]", "result": 0.45}]}, {"smiles": "CO[C@H]1C[C@@H]2CC[C@@H](C)[C@@](O)(O2)C(=O)C(=O)N2CCCC[C@H]2C(=O)O[C@H]([C@H](C)C[C@@H]2CC[C@@H](O)[C@H](OC)C2)CC(=NNc2ccccn2)[C@H](C)/C=C(\\C)[C@@H](O)[C@@H](OC)C(=O)[C@H](C)C[C@H](C)/C=C/C=C/C=C/1C", "note": "[Example 3, Rapamycin 27-(2-Pyridinylhydrazone)]", "values": [{"measurement": "IC50", "setting": "[2]; [5]", "result": 15.9, "unit": "nM"}, {"measurement": "LAF (ratio)", "setting": "[2]; [5]", "result": 0.55}]}, {"smiles": "CO[C@H]1C[C@@H]2CC[C@@H](C)[C@@](O)(O2)C(=O)C(=O)N2CCCC[C@H]2C(=O)O[C@H]([C@H](C)C[C@@H]2CC[C@@H](O)[C@H](OC)C2)CC(=NNC(N)=O)[C@H](C)/C=C(\\C)[C@@H](O)[C@@H](OC)C(=O)[C@H](C)C[C@H](C)/C=C/C=C/C=C/1C", "note": "[Example 4, Rapamycin 27-semicarbazone]", "values": [{"measurement": "PLN (ratio)", "setting": "[3]", "result": 1.07}, {"measurement": "IC50", "setting": "[2]; [5]", "result": 37.2, "unit": "nM"}, {"measurement": "LAF (ratio)", "setting": "[2]; [5]", "result": 0.24}]}, {"smiles": "CO[C@H]1C[C@@H]2CC[C@@H](C)[C@@](O)(O2)C(=O)C(=O)N2CCCC[C@H]2C(=O)O[C@H]([C@H](C)C[C@@H]2CC[C@@H](O)[C@H](OC)C2)CC(=O)[C@H](C)/C=C(\\C)[C@@H](O)[C@@H](OC)C(=O)[C@H](C)C[C@H](C)/C=C/C=C/C=C/1C", "note": "[Rapamycin]", "values": [{"measurement": "PLN (ratio)", "setting": "[3]", "result": 1}, {"measurement": "antifungal activity", "setting": "Candida albicans", "result": "antifungal activity, particularly against Candida albicans, both in vitro and in vivo"}, {"measurement": "effect in adjuvant arthritis model", "setting": "adjuvant arthritis", "result": "effective"}, {"measurement": "Skin Graft survival time (days + SD)", "setting": "[1]", "result": "12.0 ± 1.7", "unit": "days"}, {"measurement": "inhibition of T-cell activation", "setting": "T-cell activation", "result": "inhibit T-cell activation"}, {"measurement": "survival time of organ grafts", "setting": "[4]", "result": "prolong survival time of organ grafts in histoincompatible rodents"}, {"measurement": "IC50", "setting": "[2]", "result": "8.5 to 8.8", "unit": "nM"}]}]}
